From US20250099548A1, “PHARMACEUTICAL COMPOSITION FOR PREVENTING OR TREATING DEGENERATIVE BRAIN DISEASES, CONTAINING GLUCAGON-LIKE PEPTIDE-1 AND INTERLEUKIN-1 RECEPTOR ANTAGONIST” (GI INNOVATION, INC., priority 2022, published 2025)

Test system: Tg-APP/PS1 mice
Assay: MAP-2 immunofluorescence staining of hippocampal CA1 region
Assay type: in vivo, mouse
Settings: 4 times for 2 weeks
Text: Long-term memory is regulated at synapses between axons of neurons and dendrites of target neurons, and the microstructure of neurons is greatly influenced by the state of neuron health. Changes in the microstructure of dendrites of neurons are important for maintaining memory. The microstructure of the dendrites of such neurons can be observed as an image by staining with an anti-MAP-2 antibody (GeneTex, CatNo. GTX133109) located in the dendrites.
Therefore, in order to determine the mechanism of action of cognitive function improvement and memory recovery effects of GI210B1, the Tg-APP/PS1 mice administered with GI210B1 (Tg+GI210B1), the wild type mice (WT) as a normal group, and the Tg-APP/PS1 mice (Tg or Tg+Veh) as a control group were sacrificed, and then the brain tissue was extracted, and the microstructural status of the dendrites (dendritic process) of the hippocampus was analyzed.
In the same manner as in Example 1.4.1 above, the mice from each group were sacrificed, and then the brain tissue was extracted, and the microstructural status of the dendrites of the hippocampus was analyzed.

## GI210B1: fusion protein dimer comprising GLP-1 (SEQ ID NO: 2), IgG4 Fc domain and IL-1Ra; SEQ ID NO: 10
Example 1, GI210B1 1.2 mg/kg intraperitoneal
  expression level of MAP-2 in the CA1 region of the hippocampus: recovered to the level of the normal group (WT)
Example 2, GI210B1, GI210B1C1, GI210B1CN at 1.2, 0.7778, 1.1745 mg/kg intraperitoneal
  expression level of MAP-2 in the CA1 region of the hippocampus: higher than that of the control group (Tg+Veh)
